Measurements published in patent publication US10206937B2, “Boronic acid derivatives and therapeutic uses thereof” (Qpex Biopharma, Inc., priority 2014, dated 2019).

Test system: strains of Enterobacteriaceae producing various carbapenemases (class A, D and B; 104 strains)
Test: Antibiotics potentiation by Compound 27 (MIC; meropenem, doripenem, ertapenem, cefepime)
Type: cell-based
Conditions: + 27 = with Compound 27 at fixed 4 μg/ml

Measured: MIC

C[C@@H](O)[C@H]1C(=O)N2C(C(=O)O)=C(S[C@@H]3CN[C@H](C(=O)Nc4cccc(C(=O)O)c4)C3)[C@H](C)[C@H]12 [E]
Y (MIC of 1 μg/mL to 10 μg/mL): strain CF1021 Citrobacter freundii (CMY-type; VIM-1) | strain CF1022 Citrobacter freundii (SHV-12(2be), TEM-OSBL(2b); IMP-8) | strain CL1080 Enterobacter cloacae (IMP-1) | strain EC1062 Escherichia coli (OXA-48, CTX-M-15) | strain EC1065 Escherichia coli (IMP-1) | strain ECL1036 Enterobacter cloacae (KPC-3, TEM-1) | strain ECL1059 Enterobacter cloacae (KPC-3, SHV-12, TEM-1) | strain ECL1082 Enterobacter cloacae (VIM-1) | strain ECL1090 Enterobacter cloacae (TEM-1(2b); CTX-M-22; ACT-type; IMP-8) | strain ECL1091 Enterobacter cloacae (VIM-1) | strain ECL1092 Enterobacter cloacae (TEM-OSBL(2b); ACT-32; VIM-1) | strain ECL1093 Enterobacter cloacae (TEM-OSBL(2b); ACT-32; VIM-1) | strain KP1002 Klebsiella pneumoniae (KPC TEM SHV) | strain KP1008 Klebsiella pneumoniae (KPC-2) | strain KP1014 Klebsiella pneumoniae (VIM-1, TEM, SHV) | strain KP1054 Klebsiella pneumoniae (VIM-1, SHV-11) | strain KP1065 Klebsiella pneumoniae (VIM-1, SHV-11) | strain KP1095 Klebsiella pneumoniae (KPC-2 TEM-1 SHV-1) | strain KP1167 Klebsiella pneumoniae (SHV-12(2be); VIM-1) | strain KP1169 Klebsiella pneumoniae (SHV-11(2b); VIM-1) | strain KP1172 Klebsiella pneumoniae (SHV-31(2be); DHA-1; VIM-1) | strain KP1173 Klebsiella pneumoniae (TEM-33(2br); CTX-M-15; IMP-1) | strain KP1180 Klebsiella pneumoniae (SHV-OSBL(2b), TEM-OSBL(2b); CTX-M-15; DHA-1; IMP-26) | strain KP1181 Klebsiella pneumoniae (SHV-OSBL(2b); CTX-M-15; IMP-26) | strain KP1184 Klebsiella pneumoniae (SHV-OSBL(2b); IMP-1) | strain KPM1203 Klebsiella pneumoniae (KPC SHV TEM) | strain KPM1344 Klebsiella pneumoniae (VIM-1) | strain KPM1345 Klebsiella pneumoniae (VIM-1 SHV) | strain KX1018 Klebsiella oxytoca (KPC-2, SHV-40, OXY-1) | strain PM1024 Proteus mirabilis (TEM-1(2b); CMY-16; VIM-1) | strain PM1026 Proteus mirabilis (DHA-1; IMP-26)
Z (MIC of greater than 10 μg/mL): strain CF1012 Citrobacter freundii (KPC-2) | strain CF1023 Citrobacter freundii (SHV-12(2be), TEM-OSBL(2b); CTX-M-3; CMY-34; NDM-1) | strain EA1019 Enterobacter aerogenes (SHV-5, VIM-1) | strain EC1061 Escherichia coli (NDM-1, CMY-6) | strain EC1064 Escherichia coli (NDM-1, CMY-6, CTX-M-15) | strain EC1068 Escherichia coli (VIM-1) | strain EC1069 Escherichia coli (CTX-M-27; NDM-1) | strain EC1070 Escherichia coli (TEM-OSBL(2b); CMY-42; NDM-5) | strain EC1072 Escherichia coli (CTX-M-3; NDM-1) | strain ECL1004 Enterobacter cloacae (NMC-A) | strain ECL1026 Enterobacter cloacae (KPC-2, TEM-1) | strain ECL1045 Enterobacter cloacae (VIM-1) | strain ECL1055 Enterobacter cloacae (KPC-3, TEM) | strain ECL1057 Enterobacter cloacae (NDM-1, TEM-1, CTX-M-15) | strain ECL1058 Enterobacter cloacae (KPC-3, SHV-11, TEM-1) | strain ECL1061 Enterobacter cloacae (KPC-3, Hyper AmpC expression) | strain ECL1084 Enterobacter cloacae (CTX-M-15; ACT-16; NDM-1) | strain ECL1085 Enterobacter cloacae (SHV-31(2be), TEM-1(2b); CTX-M-15; NDM-1) | strain ECL1086 Enterobacter cloacae (VIM-31, OXA-48(c)) | strain ECL1087 Enterobacter cloacae (VIM-1) | strain ECL1088 Enterobacter cloacae (TEM-1(2b); CTX-M-14; ACT-type; VIM-1) | strain ECL1089 Enterobacter cloacae (ACT-type; IMP-1) | strain ECL1094 Enterobacter cloacae (VIM-1) | strain ECL1096 Enterobacter cloacae (CMY-4, VIM-4, OXA-48(c)) | strain ECL1097 Enterobacter cloacae (SHV-31(2be), TEM-OSBL(2b); CTX-M-15; ACT-31; NDM-1) | strain ECL1098 Enterobacter cloacae (TEM-OSBL(2b); DHA-1; ACT-16; NDM-1) | strain KP1001 Klebsiella pneumoniae (KPC TEM SHV) | strain KP1003 Klebsiella pneumoniae (KPC TEM SHV) | strain KP1004 Klebsiella pneumoniae (KPC-2, TEM-1, SHV-11) | strain KP1059 Klebsiella pneumoniae (VIM-1, SHV-11) | strain KP1061 Klebsiella pneumoniae (KPC-3, SHV-11, TEM-1) | strain KP1064 Klebsiella pneumoniae (KPC-2, SHV-11, TEM-1) | strain KP1070 Klebsiella pneumoniae (KPC-2, SHV-11, TEM-1) | strain KP1074 Klebsiella pneumoniae (KPC-3, SHV-11, TEM) | strain KP1081 Klebsiella pneumoniae (NDM-1, TEM-1, SHV-11, CMY-6, CTX-M-15) | strain KP1082 Klebsiella pneumoniae (KPC-2, SHV-1) | strain KP1083 Klebsiella pneumoniae (KPC-3, SHV-1, TEM-1) | strain KP1084 Klebsiella pneumoniae (KPC-3, SHV-11, TEM-1) | strain KP1086 Klebsiella pneumoniae (OXA-48, CTX-M-15, TEM, SHV) | strain KP1087 Klebsiella pneumoniae (KPC-2, CTX-M-15, SHV-11, TEM-1) | strain KP1088 Klebsiella pneumoniae (KPC-3, SHV-11, TEM-1) | strain KP1089 Klebsiella pneumonias (OXA-181, CTX-M-15, TEM, SHV) | strain KP1096 Klebsiella pneumoniae (KPC-2 TEM-181 SHV-11) | strain KP1097 Klebsiella pneumonias (IMP-1) | strain KP1098 Klebsiella pneumoniae (IMP-26) | strain KP1104 Klebsiella pneumoniae (KPC TEM) | strain KP1105 Klebsiella pneumoniae (KPC TEM SHV) | strain KP1159 Klebsiella pneumoniae (SHV-1(2b); CTX-M-15; IMP-4) | strain KP1160 Klebsiella pneumoniae (SHV-28(2be); CTX-M-15; IMP-26) | strain KP1161 Klebsiella pneumoniae (NDM-1) | strain KP1164 Klebsiella pneumoniae (SHV-12(2be); VIM-1) | strain KP1165 Klebsiella pneumoniae (SHV-11(2b); CTX-M-15; VIM-27) | strain KP1166 Klebsiella pneumoniae (SHV-5(2be); VIM-26) | strain KP1170 Klebsiella pneumoniae (SHV-11(2b); CTX-M-15; NDM-1) | strain KP1174 Klebsiella pneumoniae (CTX-M-14; IMP-1) | strain KP1175 Klebsiella pneumoniae (SHV-OSBL(2b); VIM-1) | strain KP1177 Klebsiella pneumoniae (SHV-OSBL(2b), TEM-OSBL(2b); CTX-M-15; NDM-1) | strain KP1178 Klebsiella pneumoniae (SHV-OSBL(2b;) TEM-OSBL(2b); CTX-M-15; NDM-1) | strain KP1179 Klebsiella pneumoniae (SHV-12(2be), TEM-OSBL(2b); CTX-M-15; NDM-7) | strain KP1183 Klebsiella pneumoniae (SHV-OSBL(2b), TEM-OSBL(2b); CTX-M-15; NDM-1) | strain KP1185 Klebsiella pneumoniae (SHV-OSBL(2b), TEM-OSBL(2b); IMP-4) | strain KP1186 Klebsiella pneumoniae (CTX-M-15; NDM-1) | strain KP1187 Klebsiella pneumoniae (SHV-55(2be), TEM-OSBL(2b); CTX-M-15; NDM-1) | strain KP1188 Klebsiella pneumoniae (SHV-OSBL(2b); CTX-M-15; NDM-1) | strain KP1189 Klebsiella pneumoniae (TEM-OSBL(2b); CTX-M-15; CTX-M-27; NDM-1) | strain KPM1123 Klebsiella pneumoniae (KPC-2 TEM SHV) | strain KPM1202 Klebsiella pneumoniae (KPC SHV TEM) | strain KPM1347 Klebsiella pneumoniae (NDM-1 SHV CTX-M-15) | strain KX1017 Klebsiella oxytoca (KPC-2, OXA-2, SHV-30) | strain KX1019 Klebsiella oxytoca (KPC-2, OXA-2) | strain PM1027 Proteus mirabilis (VIM-5) | strain SM1023 Serratia marcescens (VIM-4)
X (MIC of less than 1 μg/mL): strain EC1007 Escherichia coli (KPC-3)
